Experimental findings from patent publication US20230203043A1, “NOVEL IMIDAZOPYRAZINE DERIVATIVES” (Hoffmann-La Roche Inc., priority 2020, published 2023) are described below.

Where a name gives a salt, the structure may show the parent alone.

Usually IC90 stands for the concentration at which the effect reaches the 90% level.

One test concerns Acinetobacter baumannii ATCC17961. Nature of the test: Antimicrobial susceptibility testing: 90% growth inhibitory concentration (IC90) determination in Iso-Sensitest broth, OD600 growth. The settings on record: Acinetobacter baumannii, ATCC17961, 16 h, read-out: A. baumannii ATCC 17961 IC90 (uM), strain ATCC 17961, OD600 growth over 16 h. It is filed as cell-based. The method, boiled down: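 Growth monitored at 600 nm every 20 min for 16 h at 35±2 °C, inoculum ~5×10^(5) CFU/ml in Iso-Sensitest medium. Compounds in 10-point twofold series, e.g. 50 to 0.097 μM final; 90% inhibitory concentration taken from log-phase growth.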
On to `CCc1cc(Nc2nccn3c(-c4cn(CCF)nc4C(F)F)cnc23)ccc1C(=O)N1CCN(C(=O)C2CCNCC2)CC1` [Example 770, (4-(4-((3-(3-(difluoromethyl)-1-(2-fluoroethyl)-1H-pyrazol-4-yl)imidazo[1,2-a]pyrazin-8-yl)amino)-2-ethylbenzoyl)piperazin-1-yl)(piperidin-4-yl)methanone formate], for which the IC90 is 0.929 µM.

As for `Cc1cc(Nc2nccn3c(-c4c[nH]nc4C(F)(F)F)cnc23)ccc1C(=O)N1CCN(C(=O)N[C@@H]2CCNC2)CC1` [Example 416, formic acid; 4-[2-methyl-4-[[3-[3-(trifluoromethyl)-1H-pyrazol-4-yl]imidazo[1,2-a]pyrazin-8-yl]amino]benzoyl]-N-[(3R)-pyrrolidin-3-yl]piperazine-1-carboxamide], the IC90 turned out to be 0.441 µM.

In the case of `Cc1cc(Nc2nccn3c(-c4cn(CC#N)nc4C(F)(F)F)cnc23)cc(F)c1C(=O)N[C@H](C)CNC(=O)C1CCNCC1` [Example 741, (R)-N-(2-(4-((3-(1-(cyanomethyl)-3-(trifluoromethyl)-1H-pyrazol-4-yl)imidazo[1,2-a]pyrazin-8-yl)amino)-2-fluoro-6-methylbenzamido)propyl)piperidine-4-carboxamide formate], the IC90 came to 0.53 µM.

Turning to `CCc1cc(Nc2nccn3c(-c4cn(CC(F)F)nc4C(F)(F)F)cnc23)ccc1C(=O)NC1CCCNC1` (stereo not drawn) [Example 563, 4-((3-(1-(2,2-difluoroethyl)-3-(trifluoromethyl)-1H-pyrazol-4-yl)imidazo[1,2-a]pyrazin-8-yl)amino)-2-ethyl-N-(piperidin-3-yl)benzamide formate], the IC90 is 0.575 µM.

Take `CCc1cc(Nc2nccn3c(-c4cn(C(C)C#N)nc4C(F)(F)F)cnc23)ccc1C(=O)NCC1CC1N` (stereo not drawn) [Example 700, N-((2-aminocyclopropyl)methyl)-4-((3-(1-(1-cyanoethyl)-3-(trifluoromethyl)-1H-pyrazol-4-yl)imidazo[1,2-a]pyrazin-8-yl)amino)-2-ethylbenzamide formate]: the concentration for an effect of 90% (IC90) is 0.382 µM.

Take `CCc1cc(Nc2nccn3c(-c4c[nH]nc4C(F)(F)F)cnc23)ccc1C(=O)NCCNC(=O)C1CCNCC1` [Example 553, N-(2-(2-ethyl-4-((3-(3-(trifluoromethyl)-1H-pyrazol-4-yl)imidazo[1,2-a]pyrazin-8-yl)amino)benzamido)ethyl) piperidine-4-carboxamide formate]: the IC90 is 0.682 µM.

On to `N#CCn1cc(-c2cnc3c(Nc4ccc(C(=O)N5CCN(C(=O)N[C@@H]6CCNC6)CC5)c(Cl)c4)nccn23)c(C(F)(F)F)n1` [Example 288, 4-[2-chloro-4-[[3-[1-(cyanomethyl)-3-(trifluoromethyl)pyrazol-4-yl]imidazo[1,2-a]pyrazin-8-yl]amino]benzoyl]-N-[(3R)-pyrrolidin-3-yl]piperazine-1-carboxamide formate], for which the IC90 was 0.233 µM.

For the compound `N#CCn1cc(-c2cnc3c(Nc4ccc(C(=O)N5CCN(CC(=O)NC6CNC6)CC5)c(Cl)c4)nccn23)c(C(F)(F)F)n1` [Example 604, N-(azetidin-3-yl)-2-(4-(2-chloro-4-((3-(1-(cyanomethyl)-3-(trifluoromethyl)-1H-pyrazol-4-yl)imidazo[1,2-a]pyrazin-8-yl)amino)benzoyl)piperazin-1-yl)acetamide formate], the IC90 came out at 0.602 µM.

In the case of `COCCn1cc(-c2cnc3c(Nc4ccc(C(=O)N5CCN(C(=O)N[C@H]6CCNC6)CC5)c(Cl)c4)nccn23)c(C(F)(F)F)n1` [Example 293, 4-[2-chloro-4-[[3-[1-(2-methoxyethyl)-3-(trifluoromethyl)pyrazol-4-yl]imidazo[1,2-a]pyrazin-8-yl]amino]benzoyl]-N-[(3S)-pyrrolidin-3-yl]piperazine-1-carboxamide formate], the IC90 worked out at 0.429 µM.

As for `NC1CC(C(=O)N2CCN(C(=O)c3ccc(Nc4nccn5c(-c6c[nH]nc6C(F)(F)F)cnc45)cc3Cl)CC2)C1` (stereo not drawn) [Example 327, [4-(3-aminocyclobutanecarbonyl)piperazin-1-yl]-[2-chloro-4-[[3-[3-(trifluoromethyl)-1H-pyrazol-4-yl]imidazo[1,2-a]pyrazin-8-yl]amino]phenyl]methanone formate], the IC90 was 0.146 µM.

With `O=C(c1ccc(Nc2nccn3c(-c4cn(Cc5cncnc5)nc4C(F)(F)F)cnc23)cc1Cl)N1CCNCC1` [Example 182, [2-chloro-4-[[3-[1-(pyrimidin-5-ylmethyl)-3-(trifluoromethyl)pyrazol-4-yl]imidazo[1,2-a]pyrazin-8-yl]amino]phenyl]-piperazin-1-ylmethanone formate], the IC90 was found to be 0.368 µM.

`O=C(c1ccc(Nc2nccn3c(-c4cn(Cc5ncccn5)nc4C(F)(F)F)cnc23)cc1Cl)N1CCNCC1` [Example 169, [2-chloro-4-[[3-[1-(pyrimidin-2-ylmethyl)-3-(trifluoromethyl)pyrazol-4-yl]imidazo[1,2-a]pyrazin-8-yl]amino]phenyl]-piperazin-1-ylmethanone formate]: the IC90 worked out at 0.392 µM.

Staying with this test, now noted: Acinetobacter baumannii, ATCC17961, 16 h, strain ATCC 17961, OD600 growth over 16 h, read-out: A. baumannii ATCC 17961 IC90.
For the compound `Cc1cc(Nc2nccn3c(-c4c[nH]nc4C(F)(F)F)cnc23)ccc1C(=O)N1CCN(C(=O)[C@H](C)N)CC1` [Example 331, (2S)-2-amino-1-[4-[2-methyl-4-[[3-[3-(trifluoromethyl)-1H-pyrazol-4-yl]imidazo[1,2-a]pyrazin-8-yl]amino]benzoyl]piperazin-1-yl]propan-1-one], the IC90 came out at 0.401 µM.

As for `CCc1cc(Nc2nccn3c(-c4c[nH]nc4C(F)(F)F)cnc23)ccc1C(=O)NCCOCC(C)(C)N` [Example 176, N-[2-(2-amino-2-methylpropoxy)ethyl]-2-ethyl-4-[[3-[3-(trifluoromethyl)-1H-pyrazol-4-yl]imidazo[1,2-a]pyrazin-8-yl]amino]benzamide hydrochloride], the concentration for an effect of 90% (IC90) worked out at 0.409 µM.

For the compound `CCc1cc(Nc2nccn3c(-c4c[nH]nc4C(F)(F)F)cnc23)ccc1C(=O)NCCNC(=O)[C@@H]1CCCN1` [Example 39, (2S)-N-[2-[[2-ethyl-4-[[3-[3-(trifluoromethyl)-1H-pyrazol-4-yl]imidazo[1,2-a]pyrazin-8-yl]amino]benzoyl]amino]ethyl] pyrrolidine-2-carboxamide], the IC90 was 0.47 µM.

Take `CCc1cc(Nc2nccn3c(-c4cn(CC(F)F)nc4C(F)(F)F)cnc23)ccc1C(=O)N[C@@H](C)CN` [Example 57, N-[(2S)-1-aminopropan-2-yl]-4-[[3-[1-(2,2-difluoroethyl)-3-(trifluoromethyl)pyrazol-4-yl]imidazo[1,2-a]pyrazin-8-yl]amino]-2-ethylbenzamide]: the 90% effect concentration (IC90) was found to be 0.202 µM.

For `O=C(N[C@@H]1CCNC1)c1ccc(Nc2nccn3c(-c4c[nH]nc4C(F)(F)F)cnc23)cc1Cl` [Example 379, 2-chloro-N-[(3R)-pyrrolidin-3-yl]-4-[[3-[3-(trifluoromethyl)-1H-pyrazol-4-yl]imidazo[1,2-a]pyrazin-8-yl]amino]benzamide], the IC90 worked out at 0.576 µM.

Consider `CCc1cc(Nc2nccn3c(-c4cn(CC(F)F)nc4C(F)(F)F)cnc23)ccc1C(=O)NCC(=O)NCCN` [Example 729, N-[2-(2-aminoethylamino)-2-oxo-ethyl]-4-[[3-[1-(2,2-difluoroethyl)-3-(trifluoromethyl)pyrazol-4-yl]imidazo[1,2-a]pyrazin-8-yl]amino]-2-ethyl-benzamide], for which the 90% effect concentration (IC90) was 0.473 µM.

For `Cc1cc(Nc2nccn3c(-c4c[nH]nc4C(F)(F)F)cnc23)ccc1C(=O)N1CCN(C(=O)[C@H]2CCNC2)CC1` [Example 333, [2-methyl-4-[[3-[3-(trifluoromethyl)-1H-pyrazol-4-yl]imidazo[1,2-a]pyrazin-8-yl]amino]phenyl]-[4-[(3S)-pyrrolidine-3-carbonyl]piperazin-1-yl]methanone], the 90% effect concentration (IC90) stood at 0.695 µM.

In the case of `C#CCn1cc(-c2cnc3c(Nc4ccc(C(=O)NCC)c(CC)c4)nccn23)c(C(F)(F)F)n1` [Example 112, N,2-diethyl-4-[[3-[1-prop-2-ynyl-3-(trifluoromethyl)pyrazol-4-yl]imidazo[1,2-a]pyrazin-8-yl]amino]benzamide], the IC90 is 0.231 µM.

Regarding `CCc1cc(Nc2nccn3c(-c4cn(CC(F)F)nc4C(F)(F)F)cnc23)ccc1C(=O)NCC(=O)NCC1CCCN1` (stereo not drawn) [Example 548, 4-[[3-[1-(2,2-difluoroethyl)-3-(trifluoromethyl)pyrazol-4-yl]imidazo[1,2-a]pyrazin-8-yl]amino]-2-ethyl-N-[2-oxo-2-(pyrrolidin-2-ylmethylamino)ethyl] benzamide formate], the IC90 is 0.267 µM.

Staying with this test, now noted: strain ATCC 17961, OD600 growth over 16 h, read-out: A. baumannii ATCC 17961 IC90.
Take `N#CCn1cc(-c2cnc3c(Nc4ccc(C(=O)N5CCN(C(=O)NC6CNC6)CC5)c(Cl)c4)nccn23)c(C(F)(F)F)n1` [Example 214, N-(azetidin-3-yl)-4-[2-chloro-4-[[3-[1-(cyanomethyl)-3-(trifluoromethyl)pyrazol-4-yl]imidazo[1,2-a]pyrazin-8-yl]amino]benzoyl] piperazine-1-carboxamide formate]: the IC90 came out at 0.349 µM.

In the case of `NC1CC(NC(=O)N2CCN(C(=O)c3ccc(Nc4nccn5c(-c6c[nH]nc6C(F)(F)F)cnc45)cc3Cl)CC2)C1` (stereo not drawn) [Example 265, N-(3-aminocyclobutyl)-4-[2-chloro-4-[[3-[3-(trifluoromethyl)-1H-pyrazol-4-yl]imidazo[1,2-a]pyrazin-8-yl]amino]benzoyl] piperazine-1-carboxamide formate], the IC90 was determined as 0.231 µM.

As to `C[C@@H](O)CNC(=O)c1ccc(Nc2nccn3c(-c4cn(CC#N)nc4C(F)(F)F)cnc23)cc1Cl` [Example 237, 2-chloro-4-[[3-[1-(cyanomethyl)-3-(trifluoromethyl)pyrazol-4-yl]imidazo[1,2-a]pyrazin-8-yl]amino]-N-[(2R)-2-hydroxypropyl] benzamide], the IC90 was found to be 0.196 µM.
